According to patent US6696494B2, “α-hydroxyarylbutanamine inhibitors of aspartyl protease” (Enanta Pharmaceuticals, Inc., priority 2001, dated 2004):

The compounds below were run against HIV-1 protease (Human immunodeficiency virus type 1 group M subtype B, UniProt P04585) (assay: Inhibition of microbial expressed viral protease (HIV-1 protease), method of Toth and Marshall).
Format: biochemical
Protocol: Biological Assay for Inhibition of Microbial Expressed Viral Protease
The inhibition constants against HIV-1 protease were measured using the method described by M. V. Toth and G. R. Marshall, Int. J. Peptide protein Res., 1990, 544. The method described M. W. Pennington et al., Peptides 1990, Gimet, E. and D. Andrew, Eds., Escom; Leiden, Netherlands (1990) may also be used. The potency is measured as IC50in μM. The person of skill would accept these tests as predictive of the compounds' utility in vivo to treat HIV infected patients.
`CC(C)CNC(=O)c1ccccc1CC[C@@H](O)[C@H](Cc1ccccc1)NC(=O)OC(C)(C)C` [Example 000156] showed an IC50 of less than 0.1 µM.
`CC(C)(C)NC(=O)c1ccccc1CC[C@@H](O)[C@H](Cc1ccccc1)NC(=O)O[C@H]1CCOC1` [Example 000180] gave an IC50 of less than 0.1 µM.
For `CCOC(=O)NC(Cc1ccccc1)C(O)C=Cc1ccccc1C(=O)NC(C)(C)C` (stereo not shown) [Example 000207], the IC50 was 0.1 to 10 µM.
Compound `CC(C)(C)NC(=O)c1ccccc1CC[C@@H](O)[C@H](Cc1ccccc1)NC(=O)N1c2ccccc2Sc2ccccc21` [Example 00241] has an IC50 greater than 10 µM.
For `C[C@H](O)C(=O)N[C@@H](Cc1ccccc1)[C@H](O)CCc1ccccc1C(=O)NC(C)(C)C` [Example 000242], the IC50 was 0.1 to 10 µM.
`CC(Oc1ccccc1)C(=O)NC(Cc1ccccc1)C(O)CCc1ccccc1C(=O)NC(C)(C)C` (stereo not shown) [Example 000243] was tested, and the IC50 was 0.1 to 10 µM.
With `CC(C)(C)NC(=O)c1ccccc1CC[C@@H](O)[C@H](Cc1ccccc1)NC(=O)COc1ccccc1` [Example 000244] the IC50 was 0.1 to 10 µM.
With `CC(C)(C)NC(=O)c1ccccc1CC[C@@H](O)[C@H](Cc1ccccc1)NC(=O)c1ccccc1` [Example 000245] the IC50 was 0.1 to 10 µM.
Compound `CCCCNC(=O)c1ccccc1CC[C@@H](O)[C@H](Cc1ccccc1)NC(=O)OC(C)(C)C` [Example 000344] has an IC50 of 0.1 to 10 µM.
`CC(C)(C)NC(=O)c1ccccc1CC[C@@H](O)[C@H](Cc1ccccc1)NC(=O)COc1ccc2ccccc2c1` [Example 000760] showed an IC50 of 0.1 to 10 µM.
With `CC(C)(C)NC(=O)c1ccccc1CC[C@@H](O)[C@H](Cc1ccccc1)NC(=O)Cc1ccccc1` [Example 00762] the IC50 was 0.1 to 10 µM.
Work on `CC(C)(C)NC(=O)c1ccccc1CC[C@@H](O)[C@H](Cc1ccccc1)NC(=O)CCc1ccccc1` [Example 000763] yielded an IC50 of 0.1 to 10 µM.
`CC(C)CCNC(=O)c1ccccc1CC[C@@H](O)[C@H](Cc1ccccc1)NC(=O)OC(C)(C)C` [Example 000766] was tested, and the IC50 was 0.1 to 10 µM.
For `CCOC(=O)N[C@@H](Cc1ccccc1)[C@H](O)CCc1ccccc1C(=O)NCCC(C)C` [Example 000770], the IC50 was 0.1 to 10 µM.
`CCNC(=O)N[C@@H](Cc1ccccc1)[C@H](O)CCc1ccccc1C(=O)NC(C)(C)C` [Example 000771] gave an IC50 of 0.1 to 10 µM.
Compound `CC(C)(C)NC(=O)c1ccccc1CC[C@@H](O)[C@H](Cc1ccccc1)NC(=O)NC(=O)CCl` [Example 000869] has an IC50 greater than 10 µM.
`CCc1ccc(S(=O)(=O)N[C@@H](Cc2ccccc2)[C@H](O)CCc2ccccc2C(=O)NC(C)(C)C)cc1` [Example 000874] gave an IC50 of 0.1 to 10 µM.
`CCC(C)(C)c1ccc(S(=O)(=O)N[C@@H](Cc2ccccc2)[C@H](O)CCc2ccccc2C(=O)NC(C)(C)C)cc1` [Example 000875] showed an IC50 of 0.1 to 10 µM.
Work on `CC(C)(C)NC(=O)c1ccccc1CC[C@@H](O)[C@H](Cc1ccccc1)NS(=O)(=O)c1ccc(C#N)cc1` [Example 000876] yielded an IC50 of 0.1 to 10 µM.
`CC(C)(C)NC(=O)c1ccccc1CC[C@@H](O)[C@H](Cc1ccccc1)NS(=O)(=O)c1ccc(C(F)(F)F)cc1` [Example 000877] gave an IC50 of 0.1 to 10 µM.
`CC(C)(C)NC(=O)c1ccccc1CC[C@@H](O)[C@H](Cc1ccccc1)NS(=O)(=O)c1cccc2cccnc12` [Example 00878] showed an IC50 of 0.1 to 10 µM.
`CC(C)(C)NC(=O)c1ccccc1CC[C@@H](O)[C@H](Cc1ccccc1)NS(=O)(=O)c1ccc(Br)c(Cl)n1` [Example 000879] gave an IC50 of 0.1 to 10 µM.
`CC(C)(C)NC(=O)c1ccccc1CC[C@@H](O)[C@H](Cc1ccccc1)NS(=O)(=O)c1cccs1` [Example 000880] gave an IC50 of 0.1 to 10 µM.
Work on `CC(C)S(=O)(=O)N[C@@H](Cc1ccccc1)[C@H](O)CCc1ccccc1C(=O)NC(C)(C)C` [Example 000881] yielded an IC50 of 0.1 to 10 µM.
In the case of `CC(C)(C)NC(=O)c1ccccc1CC[C@@H](O)[C@H](Cc1ccccc1)NC(=O)NC1CCCCC1` [Example 000882], the IC50 is reported as greater than 10 µM.
`CC(C)(C)NC(=O)c1ccccc1CC[C@@H](O)[C@H](Cc1ccccc1)NC(=O)Nc1ccc([N+](=O)[O-])cc1` [Example 000889] was tested, and the IC50 was 0.1 to 10 µM.
With `CCCCCNC(=O)N[C@@H](Cc1ccccc1)[C@H](O)CCc1ccccc1C(=O)NC(C)(C)C` [Example 000890] the IC50 was 0.1 to 10 µM.
With `CCCCNC(=O)N[C@@H](Cc1ccccc1)[C@H](O)CCc1ccccc1C(=O)NC(C)(C)C` [Example 000891] the IC50 was 0.1 to 10 µM.
`CC(C)NC(=O)N[C@@H](Cc1ccccc1)[C@H](O)CCc1ccccc1C(=O)NC(C)(C)C` [Example 000892] gave an IC50 of 0.1 to 10 µM.
For `CCc1ccc(NC(=O)N[C@@H](Cc2ccccc2)[C@H](O)CCc2ccccc2C(=O)NC(C)(C)C)cc1` [Example 000893], the IC50 was 0.1 to 10 µM.
With `Cc1ccc(CO)cc1C(=O)N[C@@H](Cc1ccccc1)[C@H](O)CCc1ccccc1C(=O)NC(C)(C)C` [Example 000895] the IC50 was less than 0.1 µM.
In the case of `COc1ccc(Br)c(C(=O)N[C@@H](Cc2ccccc2)[C@H](O)CCc2ccccc2C(=O)NC(C)(C)C)c1` [Example 000900], the IC50 is reported as 0.1 to 10 µM.
Work on `CC(C)(C)NC(=O)c1ccccc1CC[C@@H](O)[C@H](Cc1ccccc1)NC(=O)c1ccc(F)cc1F` [Example 000901] yielded an IC50 of 0.1 to 10 µM.
For `CC(C)(C)NC(=O)c1ccccc1CC[C@@H](O)[C@H](Cc1ccccc1)NC(=O)c1ccc(Cl)cc1Cl` [Example 000902], the IC50 was 0.1 to 10 µM.
`CC(C)(C)NC(=O)c1ccccc1CC[C@@H](O)[C@H](Cc1ccccc1)NC(=O)c1ccc(N)cc1Cl` [Example 000944] gave an IC50 greater than 10 µM.
`Cc1c(N)cccc1C(=O)N[C@@H](Cc1ccccc1)[C@H](O)CCc1ccccc1C(=O)NC(C)(C)C` [Example 000945] showed an IC50 greater than 10 µM.
Compound `CC(C)(C)NC(=O)c1ccccc1CC[C@@H](O)[C@H](Cc1ccccc1)NC(=O)c1cccc([N+](=O)[O-])c1Br` [Example 000946] has an IC50 greater than 10 µM.
For `CC(C)(C)NC(=O)c1ccccc1CCC(O)C(Cc1ccccc1)NC(=O)C(F)=Cc1ccccc1` (stereo not shown) [Example 000947], the IC50 was greater than 10 µM.
With `CC(C)(C)NC(=O)c1ccccc1CC[C@@H](O)[C@H](Cc1ccccc1)NC(=O)c1cc(F)cc(F)c1` [Example 000948] the IC50 was greater than 10 µM.
Work on `Cc1ccc(C(=O)C=CC(=O)NC(Cc2ccccc2)C(O)CCc2ccccc2C(=O)NC(C)(C)C)cc1` (stereo not shown) [Example 000950] yielded an IC50 greater than 10 µM.
For `Cc1cccc(C)c1C(=O)N[C@@H](Cc1ccccc1)[C@H](O)CCc1ccccc1C(=O)NC(C)(C)C` [Example 000951], the IC50 was less than 0.1 µM.
`CN(C)c1ccc(C(=O)N[C@@H](Cc2ccccc2)[C@H](O)CCc2ccccc2C(=O)NC(C)(C)C)cc1` [Example 000954] gave an IC50 greater than 10 µM.
Compound `COc1cccc(OC)c1C(=O)N[C@@H](Cc1ccccc1)[C@H](O)CCc1ccccc1C(=O)NC(C)(C)C` [Example 000966] has an IC50 of 0.1 to 10 µM.
Compound `CC(C)(C)NC(=O)c1ccccc1CC[C@@H](O)[C@H](Cc1ccccc1)NC(=O)c1cc(Cl)cc(Cl)c1` [Example 000967] has an IC50 of 0.1 to 10 µM.
`CC(C)(C)NC(=O)c1ccccc1CC[C@@H](O)[C@H](Cc1ccccc1)NC(=O)c1ccccc1C(=O)c1ccccc1` [Example 00968] was tested, and the IC50 was 0.1 to 10 µM.
Work on `CC(C)(C)NC(=O)c1ccccc1CC[C@@H](O)[C@H](Cc1ccccc1)NC(=O)c1c(F)cccc1F` [Example 000969] yielded an IC50 of 0.1 to 10 µM.
Compound `CC(C)(C)NC(=O)c1ccccc1CC[C@@H](O)[C@H](Cc1ccccc1)NC(=O)c1cc(N)ccc1Cl` [Example 000971] has an IC50 of 0.1 to 10 µM.
`Cc1c(O)cccc1C(=O)N[C@@H](Cc1ccccc1)[C@H](O)CCc1ccccc1C(=O)NC(C)(C)C` [Example 000972] was tested, and the IC50 was less than 0.1 µM.
In the case of `CC(C)(C)NC(=O)c1ccccc1CC[C@@H](O)[C@H](Cc1ccccc1)NC(=O)CCC(=O)c1ccc(F)cc1` [Example 000973], the IC50 is reported as less than 0.1 µM.
